Measured values taken from the NIST ThermoML archive (doi:10.1016/j.fluid.2008.08.007).
Numbers after ± are expanded uncertainties.

Assay: xn = mol fraction of the nth substance listed
Conditions: x1 = 0.75; for surface tension liquid-gas: Ring tensiometer; for mass density: 101 kPa, Liquid, westphal balance

SMILES: [Cl-].[Cl-].[Zn+2] [zinc chloride] + CCCCn1cc[n+](C)c1.[Cl-]
- surface tension liquid-gas (318.2 K): 78.3 ± 0.99 mN/m
- mass density (318.2 K): 1779.1 ± 0.5 kg/m3
- surface tension liquid-gas (323.2 K): 78 ± 0.99 mN/m
- mass density (323.2 K): 1773.6 ± 0.5 kg/m3
- surface tension liquid-gas (328.2 K): 77.7 ± 0.99 mN/m
- mass density (328.2 K): 1766.9 ± 0.5 kg/m3
- surface tension liquid-gas (333.2 K): 77.2 ± 0.98 mN/m
- mass density (333.2 K): 1758 ± 0.5 kg/m3
- surface tension liquid-gas (338.2 K): 76.8 ± 0.98 mN/m
- mass density (338.2 K): 1749.2 ± 0.5 kg/m3
- surface tension liquid-gas (343.2 K): 76.4 ± 0.97 mN/m
- mass density (343.2 K): 1742.1 ± 0.5 kg/m3
